Like-named read-outs stand apart in the source and are kept apart here. Square brackets hold non-standard residues; d marks the D form. Peptide text beside a SMILES is read from it. Sec = N[C@@H](C[SeH])C(=O)O
What was measured:
[1] = tested on: IMR-32 cells; assay: Quantitative analysis of mitochondrial potential in IMR-32 cells; assay type: cell-based, human; details: 6 hr, compared to control
Method: Similar to the above studies on AML-12 cells, the mitochondrial potential per cell in living IMR-32 cells was determined using the Bio-TeK Synergy HT Multi-Mode fluorescence microplate reader with the following modifications. To improve the attachment of IMR-32 cells to culture dishes, cell culture plates were precoated with 0.1% gelatin (Sigma, St. Louis, Mo.). 2×10^4 cells per a 96-well were seeded on gelatinized 96-well plates for the above studies. To reduce the cell dislodgment, Mitotracker orange and Hoechst 33342 fluorescent dyes (diluted in culture media) were directly added to each well after vehicle- or compound-treatments. After dye incubation, cell culture media were carefully replaced with 1× PBS for the quantitation analysis of fluorescence on the microplate reader. Eight samples per each treatment were examined for the above analysis, and the experiments were repeated at least five times. Data are presented as mean±sem of eight samples.

[2] = tested on: IMR-32 cells; assay: Cell viability assay, IMR-32; assay type: cell-based, human
Method: (§1) Cell viability in cultured cells was determined using Promega's CellTiter96® AQueous One Solution Cell Proliferation Assay kits, according to the Manufacturer's protocol. In brief, equal number of C2C12 (1×10^4 cells/well), AML-12 (1×10^4 cells/well) and IMR-32 (2×10^4 cells/well) were seeded on 96-well clear plates (VWR) and treated with vehicle or compounds for 24, […] and/or 72 hr. Then, cultured cells were incubated with AQueous One solution (100 ul/per well) at 37° C. for 1 hr, and the absorbance of OD490 nm in each sample was determined by the Bio-Tek microplate reader. Cell viability in culture cells were determined by the subtraction of OD490 nm in cultured cells with the OD490 nm in plain culture media (without seeding of cells). Eight samples per each treatment were examined for the above analysis. Data are presented as Mean±sem of eight samples.

[3] = tested on: C2C12 cells; assay: Quantitative analysis of mitochondrial potential in C2C12 cells; assay type: cell-based, mouse; details: all concentrations
Method: For C2C12 cells, equal number of cells (1×10^4) were seeded on Corning 96-well clear-bottom and dark-wall cell culture plates (VWR), cultured in 10% FBS DMEM media for 24 hr., and then treated with vehicle (sterilized water), compound C and D and their sulfur analogs for 24 and 48 hrs. These vehicle- or compound-treated cells were rinsed twice with PBS, incubated with Mitotracker Orange fluorescence dye at 37° C. for 30 min, and then replaced with PBS. Mitotracker Orange fluorescence intensities (mitochondrial potential) in these living cells were determined by a Bio-TeK Synergy HT Multi-Mode Fluorescence Microplate Reader (Winooski, Vt.). Eight samples per each treatment were examined for the above analysis, and data are presented as mean±sem of eight samples.

[4] = tested on: HEK293T cells; assay: Fluorescence analysis of mitochondrial potential in HEK293T cells; assay type: cell-based, human; details: dose not stated
Method: HEK293T cells were cultured in 8-chamber glass slides (1×10^4 cells/chamber) for 24 hours, and then treated with various concentrations of compounds or its respective sulfur analogs (dissolved in sterilized water) for 4.5 hr. These compound-treated cells were rinsed twice with PBS, and incubated with Mitotracker Orange Fluorescence Dye (Invitrogen) at 37° C. for 30 min, and then replaced with fresh PBS according to the Manufacturer's protocol. Then fluorescent signals (mitochondrial potential) in these living cells were recorded using a Zeiss Axio Vert.A1 fluorescence microscope (Thornwood, N.Y.). At least three samples in each treatment group were analyzed under the fluorescent microscope.

[5] = tested on: AML-12 cells; assay: Cell viability assay, AML-12; assay type: cell-based, mouse
Method: as §1

[6] = tested on: Adult rat brain ficoll purified mitochondria; assay: Mitochondrial bioenergetics screen (Seahorse OCR) on isolated rat brain mitochondria; assay type: biochemical; details: 500 ppb, 30 min at 37° C.
From the text: A water soluble extract was obtained from selenized yeast. […] We reasoned that these selenium species would be the first to be liberated/digested from selenized yeast in its passage through the intestinal tract. […] Because we were primarily interested in the potential effects of these selenium species on mitochondrial bioenergetics, it was decided to test these selenium molecules directly using mitochondria.
Selenium concentration ranges low (50 ppb), mid (500 ppb) and high (1 ppm) were initially tested as a possible range for the compounds. […] Adult rat brain ficoll purified mitochondria were incubated with the 9 compounds for 30 min at 37° C. prior to being loading into the Seahorse Biosciences flux analyzer in triplicate. We measured OCR (Oxygen Consumption Rates) parameters in three respiratory states including ATP synthesis (State III), Complex I dependent (NADH-driven) Maximum Respiratory Capacity (State VFCCP) and Complex II (FADH-driven) dependent Maximum Respiratory Capacity (State Vsucc).

Molecule | cell viability (OD490 nm) ([2]; 24, 48 and 72 hr) | mitochondrial potential [3] | MT potential / mitochondrial activity in kidney cells [4] | cell viability (OD490 nm) ([5]; 48 hr) | mitochondrial potential (bioenergetics, OCR) [6] | other results
CSC[C@H]1O[C@@H](n2cnc3c(N)ncnc32)[C@@H](O)C1O (some centres unmarked) [compound H, 5′-Methylthioadenosine, reference compound] | slight decrease in viability | decreased mitochondrial potential at all concentrations | incapable of stimulating mitochondrial activity | no toxic effects |  | MT potential [1]: Increased MT potential
C[Se]C[C@H]1O[C@@H](n2cnc3c(N)ncnc32)[C@H](O)[C@@H]1O [Compound 9, MethylSelenoadenosine] |  |  |  |  | increased mitochondrial potential | 
Nc1ncnc2c1ncn2[C@@H]1O[C@H](CSCCC(N)C(=O)O)C(O)C1O (stereo in doubt) [compound I, S-Adenosyl-L-homocysteine, reference compound] | slight decrease in viability | decreased mitochondrial potential at all concentrations |  | no toxic effects |  | 
N[C@@H](CCC(=O)O)C(=O)N[C@@H](C[SeH])C(=O)O [Compound 10, Glutamylselenocysteine] (H-Glu-[Sec]-OH) |  |  |  |  | inhibited mitochondrial potential | 
CSC[C@H](NC(=O)CC[C@H](N)C(=O)O)C(=O)O [compound J, γ-L-glutamyl-methyl-L-cysteine, reference compound] |  |  | incapable of stimulating mitochondrial activity |  |  | cell viability (OD490 nm) [2]: slight decrease in viability; cell viability (OD490 nm) [5]: no toxic effects
Leucine-Threonine-Glycine-Selenomethionine-Alanine-Phenylalanine-Arginine [Compound 7] |  |  |  |  | inhibited mitochondrial potential | 
